Experimental data reported in publication PMC8105715, “Modeling of full-length Piezo1 suggests importance of the proximal N-terminus for dome structure” (Biophysical Journal, 2021).

Molecular target: T1, human Piezo1 (Homo sapiens, UniProt Q92508)
T1 construct: stably expressed in HEK 293 TREx cells, tetracycline-inducible (P1 HEK TREx); homotrimer
Test: fura-2 intracellular Ca2+ plate-reader assay, inhibition of Yoda1-evoked response
Type: cell-based
Conditions: unreliable (estimated; limited solubility); 5 uM Yoda1; cells pretreated 30 min at 37 C with cholesterol-MbetaCD complex; nominal bath concentration; site not shown, may act through membrane; pH 7.4

T1 sequence (Q92508 whole entry): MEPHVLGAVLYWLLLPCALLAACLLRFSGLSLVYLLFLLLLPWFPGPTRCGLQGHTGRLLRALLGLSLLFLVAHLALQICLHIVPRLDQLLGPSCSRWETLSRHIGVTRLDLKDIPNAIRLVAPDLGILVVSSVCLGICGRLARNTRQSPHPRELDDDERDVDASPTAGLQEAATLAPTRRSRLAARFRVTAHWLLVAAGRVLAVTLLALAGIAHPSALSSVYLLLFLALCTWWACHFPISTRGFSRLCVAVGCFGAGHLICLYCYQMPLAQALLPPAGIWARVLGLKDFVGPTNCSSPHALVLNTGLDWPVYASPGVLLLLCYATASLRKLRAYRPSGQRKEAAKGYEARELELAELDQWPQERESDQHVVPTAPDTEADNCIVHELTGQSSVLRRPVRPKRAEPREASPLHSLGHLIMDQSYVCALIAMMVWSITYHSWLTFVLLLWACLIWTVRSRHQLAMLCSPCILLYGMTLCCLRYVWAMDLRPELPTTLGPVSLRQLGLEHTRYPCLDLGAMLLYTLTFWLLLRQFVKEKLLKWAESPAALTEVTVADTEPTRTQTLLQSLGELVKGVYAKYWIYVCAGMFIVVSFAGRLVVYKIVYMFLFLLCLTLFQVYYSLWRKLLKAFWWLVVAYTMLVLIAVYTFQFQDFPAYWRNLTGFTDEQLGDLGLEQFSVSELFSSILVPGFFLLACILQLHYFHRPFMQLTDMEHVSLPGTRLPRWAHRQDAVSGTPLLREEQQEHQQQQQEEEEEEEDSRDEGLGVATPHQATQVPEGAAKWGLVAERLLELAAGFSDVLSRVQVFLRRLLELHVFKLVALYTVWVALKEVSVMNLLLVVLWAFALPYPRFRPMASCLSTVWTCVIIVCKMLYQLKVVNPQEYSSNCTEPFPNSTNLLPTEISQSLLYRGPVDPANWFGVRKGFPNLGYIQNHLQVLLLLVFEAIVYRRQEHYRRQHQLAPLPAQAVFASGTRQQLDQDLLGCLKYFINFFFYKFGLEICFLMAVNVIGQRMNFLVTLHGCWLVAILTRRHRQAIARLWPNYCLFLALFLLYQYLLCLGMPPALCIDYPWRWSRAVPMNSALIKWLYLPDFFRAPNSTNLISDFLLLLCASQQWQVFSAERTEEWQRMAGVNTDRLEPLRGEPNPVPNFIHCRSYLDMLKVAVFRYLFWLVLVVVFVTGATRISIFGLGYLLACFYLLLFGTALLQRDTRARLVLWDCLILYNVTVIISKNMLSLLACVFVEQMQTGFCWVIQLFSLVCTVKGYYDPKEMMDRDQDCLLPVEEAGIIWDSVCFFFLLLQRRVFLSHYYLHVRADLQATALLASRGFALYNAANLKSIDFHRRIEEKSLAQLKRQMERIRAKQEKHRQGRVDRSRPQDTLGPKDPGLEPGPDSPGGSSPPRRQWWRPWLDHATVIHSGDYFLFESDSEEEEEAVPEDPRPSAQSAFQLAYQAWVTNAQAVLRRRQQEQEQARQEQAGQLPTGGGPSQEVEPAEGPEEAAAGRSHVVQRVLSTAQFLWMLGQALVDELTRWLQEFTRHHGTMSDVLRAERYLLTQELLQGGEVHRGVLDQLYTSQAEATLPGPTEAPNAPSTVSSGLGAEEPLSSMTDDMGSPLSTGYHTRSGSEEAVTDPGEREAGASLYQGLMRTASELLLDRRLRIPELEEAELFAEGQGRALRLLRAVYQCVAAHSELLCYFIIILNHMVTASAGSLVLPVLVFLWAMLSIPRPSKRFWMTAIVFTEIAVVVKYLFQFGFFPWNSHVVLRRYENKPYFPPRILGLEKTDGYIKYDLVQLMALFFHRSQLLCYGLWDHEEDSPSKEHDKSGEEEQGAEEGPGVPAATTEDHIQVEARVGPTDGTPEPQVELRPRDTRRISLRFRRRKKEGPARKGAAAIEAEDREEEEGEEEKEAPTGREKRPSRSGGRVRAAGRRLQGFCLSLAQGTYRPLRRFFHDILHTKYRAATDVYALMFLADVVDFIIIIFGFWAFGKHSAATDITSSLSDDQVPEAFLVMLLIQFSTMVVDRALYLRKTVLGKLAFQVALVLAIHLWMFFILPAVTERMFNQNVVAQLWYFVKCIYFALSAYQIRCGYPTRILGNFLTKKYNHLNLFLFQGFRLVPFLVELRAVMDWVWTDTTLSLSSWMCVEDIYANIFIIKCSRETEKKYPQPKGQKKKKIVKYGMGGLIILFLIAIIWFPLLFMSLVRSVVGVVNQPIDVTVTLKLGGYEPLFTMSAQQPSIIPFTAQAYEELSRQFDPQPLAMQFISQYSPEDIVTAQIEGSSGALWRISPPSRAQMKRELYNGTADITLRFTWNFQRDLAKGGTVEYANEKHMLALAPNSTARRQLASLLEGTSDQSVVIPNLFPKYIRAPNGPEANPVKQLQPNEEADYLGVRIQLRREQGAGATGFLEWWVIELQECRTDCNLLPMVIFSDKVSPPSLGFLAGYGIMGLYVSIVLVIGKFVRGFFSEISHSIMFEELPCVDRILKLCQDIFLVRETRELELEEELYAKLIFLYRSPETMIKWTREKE

IC50: 150 µM
Compound: CC(C)CCC[C@@H](C)[C@H]1CC[C@H]2[C@@H]3CC=C4C[C@@H](O)CC[C@]4(C)[C@H]3CC[C@]12C [cholesterol]
